# Measured values reported in patent publication US12502435B2, “Metastatic brain tumor targeting peptides” (H. Lee Moffitt Cancer Center and Research Institute, Inc., priority 2018, dated 2025).
# Experiments:
# [1] = test system: Primary Lung Cancer Cells; assay: peptide binding to primary lung cancer cells (FIGS. 3, 5, 7A)
# [2] = test system: non-malignant brain cells; assay: peptide binding to non-malignant brain cells (FIGS. 3, 5, 7A)
# [3] = test system: Lung Cancer Brain Metastases Cells (MH1002, MH1016, H1915); assay: flow cytometry binding of peptide to lung cancer brain metastases cells; conditions: compared to primary lung cancer cells and non-targeting peptides
# Description: FIGS. 2A to 2C show binding of BRDT (LBM1) peptide applied to Primary Lung Cancer Cells, Non Malignant Brain Cells, Lung Cancer Brain Metastases Cells (MH1002, MH1016, H1915) analyzed through flow cytometry.
# FIGS. 4A to 4C show binding of LBM2 peptide applied to Primary Lung Cancer Cells, Non Malignant Brain Cells, Lung Cancer Brain Metastases Cells (MH1002, MH1016, H1915) analyzed through flow cytometry.
# FIGS. 6A to 6C show binding AMOT (LBM4) peptide applied to Primary Lung Cancer Cells, Non Malignant Brain Cells, Lung Cancer Brain Metastases Cells (MH1002, MH1016, H1915) analyzed through flow cytometry.
# For each peptide, as the concentration of peptide goes up, there was a right shift indicating binding to the brain met cells, with minimal binding to the lung cancer primary cells, showing specificity of binding to the brain mets over the lung cancer.
# [4] = test system: Lung Cancer Brain Metastases cells; assay: peptide binding to lung cancer brain metastases cells (FIGS. 3, 5, 7B); conditions: MH1002
Sequence,binding to primary lung cancer cells [1],binding to non-malignant brain cells [2],flow cytometry shift with peptide applied to lung cancer BM cells [3],binding to Lung Cancer Brain Metastases cells [4]
SYPSNALSLHKY [LBM1],no binding,no binding,right shift,positive binding
TLGLRPVPVATT [LBM2],no binding,no binding,right shift,positive binding
